Values quoted from earlier work as cited in publication PMC4753123 (Archives of biochemistry and biophysics, 2015).

Target: T1, Mtm1p (Saccharomyces cerevisiae, UniProt P53320)
T1 sequence (P53320 1-366): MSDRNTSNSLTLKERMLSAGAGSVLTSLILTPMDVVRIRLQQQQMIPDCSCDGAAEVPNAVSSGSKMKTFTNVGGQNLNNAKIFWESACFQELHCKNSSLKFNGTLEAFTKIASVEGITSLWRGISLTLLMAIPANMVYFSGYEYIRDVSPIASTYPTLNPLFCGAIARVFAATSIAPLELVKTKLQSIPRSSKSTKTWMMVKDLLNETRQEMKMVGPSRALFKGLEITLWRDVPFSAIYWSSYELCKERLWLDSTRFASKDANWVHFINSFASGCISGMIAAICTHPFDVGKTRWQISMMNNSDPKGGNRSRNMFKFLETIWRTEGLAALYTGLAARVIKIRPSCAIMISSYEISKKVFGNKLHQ
Test: fluorescence titration
Assay type: binding
Settings: purified recombinant protein

Question: With Cc1ncc(COP(=O)(O)O)c(C=O)c1O [PLP] as the molecule, how does the Kd read?
Answer: The Kd was 600 nM.
